≈ marks a conversion by molar mass, not a printed value. Calls of active or inactive are those of the source. The rule behind the calls is not given here.
What was measured:
Format in all cases: functional
SK-MEL-2 = experiment: Growth inhibition of human SK-MEL-2 cells at 10^-5 M incubated for 48 hrs by sulforhodamine B assay relative to control
NCI/ADR-RES = experiment: Growth inhibition of human NCI-ADR-RES cells at 10^-5 M incubated for 48 hrs by sulforhodamine B assay relative to control
SF-295 = experiment: Growth inhibition of human SF295 cells at 10^-5 M incubated for 48 hrs by sulforhodamine B assay relative to control
SNB-75 = experiment: Growth inhibition of human SNB75 cells at 10^-5 M incubated for 48 hrs by sulforhodamine B assay relative to control
OVCAR-4 = experiment: Growth inhibition of human OVCAR4 cells at 10^-5 M incubated for 48 hrs by sulforhodamine B assay relative to control
M14 = experiment: Growth inhibition of human M14 cells at 10^-5 M incubated for 48 hrs by sulforhodamine B assay relative to control
SW-620 = experiment: Growth inhibition of human SW620 cells at 10^-5 M incubated for 48 hrs by sulforhodamine B assay relative to control
BT-549 = experiment: Growth inhibition of human BT549 cells at 10^-5 M incubated for 48 hrs by sulforhodamine B assay relative to control
NCI-H23 = experiment: Growth inhibition of human NCI-H23 cells at 10^-5 M incubated for 48 hrs by sulforhodamine B assay relative to control
UACC-257 = experiment: Growth inhibition of human UACC257 cells at 10^-5 M incubated for 48 hrs by sulforhodamine B assay relative to control
SF-539 = experiment: Growth inhibition of human SF539 cells at 10^-5 M incubated for 48 hrs by sulforhodamine B assay relative to control
OVCAR-8 = experiment: Growth inhibition of human OVCAR8 cells at 10^-5 M incubated for 48 hrs by sulforhodamine B assay relative to control
MDA-MB-468 = experiment: Growth inhibition of human MDA-MB-468 cells at 10^-5 M incubated for 48 hrs by sulforhodamine B assay relative to control
RXF 393 = experiment: Growth inhibition of human RXF393 cells at 10^-5 M incubated for 48 hrs by sulforhodamine B assay relative to control
UO-31 = experiment: Growth inhibition of human UO31 cells at 10^-5 M incubated for 48 hrs by sulforhodamine B assay relative to control
SK-MEL-5 = experiment: Growth inhibition of human SK-MEL-5 cells at 10^-5 M incubated for 48 hrs by sulforhodamine B assay relative to control
EKVX = experiment: Growth inhibition of human EKVX cells at 10^-5 M incubated for 48 hrs by sulforhodamine B assay relative to control
MOLT-4 = experiment: Growth inhibition of human MOLT4 cells at 10^-5 M incubated for 48 hrs by sulforhodamine B assay relative to control
IGROV-1 = experiment: Growth inhibition of human IGROV1 cells at 10^-5 M incubated for 48 hrs by sulforhodamine B assay relative to control
HL-60(TB) = experiment: Growth inhibition of human HL-60(TB) cells at 10^-5 M incubated for 48 hrs by sulforhodamine B assay relative to control
NCI-H522 = experiment: Growth inhibition of human NCI-H522 cells at 10^-5 M incubated for 48 hrs by sulforhodamine B assay relative to control
Candida albicans [1] = experiment: Antifungal activity against Candida albicans after 24 hrs by serial dilution method
MCF7 = experiment: Growth inhibition of human MCF7 cells at 10^-5 M incubated for 48 hrs by sulforhodamine B assay relative to control
HCT-15 = experiment: Growth inhibition of human HCT15 cells at 10^-5 M incubated for 48 hrs by sulforhodamine B assay relative to control
OVCAR-5 = experiment: Growth inhibition of human OVCAR5 cells at 10^-5 M incubated for 48 hrs by sulforhodamine B assay relative to control
SNB-19 = experiment: Growth inhibition of human SNB19 cells at 10^-5 M incubated for 48 hrs by sulforhodamine B assay relative to control
A549 = experiment: Growth inhibition of human A549/ATCC cells at 10^-5 M incubated for 48 hrs by sulforhodamine B assay relative to control
NCI-H460 = experiment: Growth inhibition of human NCI-H460 cells at 10^-5 M incubated for 48 hrs by sulforhodamine B assay relative to control
HCT-116 = experiment: Growth inhibition of human HCT116 cells at 10^-5 M incubated for 48 hrs by sulforhodamine B assay relative to control
MDA-MB-231 = experiment: Growth inhibition of human MDA-MB-231/ATCC cells at 10^-5 M incubated for 48 hrs by sulforhodamine B assay relative to control
U-251 = experiment: Growth inhibition of human U251 cells at 10^-5 M incubated for 48 hrs by sulforhodamine B assay relative to control
COLO 205 = experiment: Growth inhibition of human COLO205 cells at 10^-5 M incubated for 48 hrs by sulforhodamine B assay relative to control
LOX IMVI = experiment: Growth inhibition of human LOXIMVI cells at 10^-5 M incubated for 48 hrs by sulforhodamine B assay relative to control
UACC-62 = experiment: Growth inhibition of human UACC62 cells at 10^-5 M incubated for 48 hrs by sulforhodamine B assay relative to control
ACHN = experiment: Growth inhibition of human ACHN cells at 10^-5 M incubated for 48 hrs by sulforhodamine B assay relative to control
KM12 = experiment: Growth inhibition of human KM12 cells at 10^-5 M incubated for 48 hrs by sulforhodamine B assay relative to control
Aspergillus fumigatus = experiment: Antifungal activity against Aspergillus fumigatus after 24 hrs by serial dilution method
T47D = experiment: Growth inhibition of human T47D cells at 10^-5 M incubated for 48 hrs by sulforhodamine B assay relative to control
786-0 = experiment: Growth inhibition of human 786-0 cells at 10^-5 M incubated for 48 hrs by sulforhodamine B assay relative to control
TK-10 = experiment: Growth inhibition of human TK10 cells at 10^-5 M incubated for 48 hrs by sulforhodamine B assay relative to control
Candida albicans [2] = experiment: Antifungal activity against Candida albicans at 100 ug/ml by disc diffusion method; details: read-out: IZ
SK-MEL-28 = experiment: Growth inhibition of human SK-MEL-28 cells at 10^-5 M incubated for 48 hrs by sulforhodamine B assay relative to control
HCC 2998 = experiment: Growth inhibition of human HCC2998 cells at 10^-5 M incubated for 48 hrs by sulforhodamine B assay relative to control
Hs-578T = experiment: Growth inhibition of human Hs 578T cells at 10^-5 M incubated for 48 hrs by sulforhodamine B assay relative to control

Clc1nc2ccc(Br)cc2cc1Cn1nnnc1Cc1ccccc1
growth inhibition (GI) (SK-MEL-2): Active
growth inhibition (GI) (NCI/ADR-RES): Active
growth inhibition (GI) (SF-295): Active
growth inhibition (GI) (SNB-75): Active
growth inhibition (GI) (OVCAR-4): Active
growth inhibition (GI) (M14): Active
growth inhibition (GI) (SW-620): Active
growth inhibition (GI) (BT-549): Active
growth inhibition (GI) (NCI-H23): Active
growth inhibition (GI) (UACC-257): Active
growth inhibition (GI) (SF-539): Active
growth inhibition (GI) (OVCAR-8): Active
growth inhibition (GI) (MDA-MB-468): Active
growth inhibition (GI) (RXF 393): Active
growth inhibition (GI) (UO-31): Active
growth inhibition (GI) (SK-MEL-5): Active
growth inhibition (GI) (EKVX): Active
growth inhibition (GI) (MOLT-4): Active
growth inhibition (GI) (IGROV-1): Active
growth inhibition (GI) (HL-60(TB)): Active
growth inhibition (GI) (NCI-H522): Active
MIC (Candida albicans [1]): 10 µg/mL (≈ 24.1 µM)
growth inhibition (GI) (MCF7): Active
growth inhibition (GI) (HCT-15): Active
growth inhibition (GI) (OVCAR-5): Active
growth inhibition (GI) (SNB-19): Active
growth inhibition (GI) (A549): Active
growth inhibition (GI) (NCI-H460): Active
growth inhibition (GI) (HCT-116): Active
growth inhibition (GI) (MDA-MB-231): Active
growth inhibition (GI) (U-251): Active
growth inhibition (GI) (COLO 205): Active
growth inhibition (GI) (LOX IMVI): Active
growth inhibition (GI) (UACC-62): Active
growth inhibition (GI) (ACHN): Active
growth inhibition (GI) (KM12): Active
MIC (Aspergillus fumigatus): 10 µg/mL (≈ 24.1 µM)
growth inhibition (GI) (T47D): Active
growth inhibition (GI) (786-0): Active
growth inhibition (GI) (TK-10): Active
zone of inhibition at 100 µg/mL (Candida albicans [2]): 16 mm
growth inhibition (GI) (SK-MEL-28): Active
growth inhibition (GI) (HCC 2998): Active
growth inhibition (GI) (Hs-578T): Active

From ChEMBL document CHEMBL4004849, “Tetrazolylmethyl quinolines: Design, docking studies, synthesis, anticancer and antifungal analyses” (2017)
